# Columns and labels:
# LOLPE = assay: Greenhouse trial, PO application, post-emergence action against weeds (test method 2); assay type: in vivo, Lolium perenne; conditions: g of AS/ha: (A) 120, (B) 1200, (C) 120, mixture 120 + 1200 + 120
# Procedure: (§1) In the standard design of the test, seeds of various broad-leaved weed and weed grass biotypes (origins) were sown in a 8-13 cm diameter pot filled with natural soil of a standard field soil (loamy silt; non-sterile) and covered with a covering soil layer of about 1 cm. The pots were then cultivated in a greenhouse (12-16 h of light, temperature day 20-22° C., night 15-18° C.) until the time of application. The pots were treated on a laboratory track sprayer with spray liquors comprising the compositions according to the invention, mixtures of the prior art or components used individually. Application of the active compounds or active compound combinations formulated as WG, WP, EC or otherwise was carried out at the appropriate growth stages of the plants. The application rate for the spray application was 100-600 l of water/ha. After the treatment, the plants were returned to the greenhouses.
# About 3 weeks after the application, the soil action or/and foliar action was assessed visually according to a scale of 0-100% in comparison to an untreated comparative group: 0%=no noticeable effect compared to the untreated comparative group; 100%=full effect compared to the untreated comparative group. […]
# MATCH [1] = assay: Greenhouse trial, PE application with different irrigation variations (test method 6); assay type: in vivo, Matricaria chamomilla; conditions: irrigation from above, g of AS/ha: (A) 120, (B) 1200, (C) 90, mixture 120 + 1200 + 90
# Procedure: as §1
# (§2) About 3 weeks after the application, the soil action or/and foliar action was assessed visually according to a scale of 0-100% in comparison to an untreated comparative group: 0%=no noticeable effect compared to the untreated comparative group; 100%=full effect compared to the untreated comparative group.
# (§3) (notes: the term “seeds” also includes vegetative propagation forms such as, for example, rhizome pieces; abbreviations used: h light=hours of illumination, g of AS/ha=gram of active substance per hectare, l/ha=liter per hectare, S=sensitive, R=resistant) • 1. Pre-emergence action against weeds: seeds of various broad-leaved weed and weed grass biotypes (origins) were sown in a 8-13 cm diameter pot filled with natural soil of a standard field soil (loamy silt; non-sterile) and covered with a covering soil layer of about 1 cm. The pots were then cultivated in a greenhouse (12-16 h of light, temperature day 20-22° C., night 15-18° C.) until the time of application. […]
# STEME = assay: Greenhouse trial, activity with different soil types; assay type: in vivo, Stellaria media; conditions: g of AS/ha: (A) 120, (B) 1200, (C) 90, mixture 120 + 1200 + 90
# Procedure: as §1, §2
# (§4) (notes: the term “seeds” also includes vegetative propagation forms such as, for example, rhizome pieces; abbreviations used: h light=hours of illumination, g of AS/ha=gram of active substance per hectare, l/ha=liter per hectare, S=sensitive, R=resistant) • 1. Pre-emergence action against weeds: seeds of various broad-leaved weed and weed grass biotypes (origins) were sown in a 8-13 cm diameter pot filled with natural soil of a standard field soil (loamy silt; non-sterile) and covered with a covering soil layer of about 1 cm. The pots were then cultivated in a greenhouse (12-16 h of light, temperature day 20-22° C., night 15-18° C.) until the time of application. The pots were treated at the BBCH stage 00-10 of the seeds/plants on a laboratory track sprayer with spray liquors comprising the compositions according to the invention, mixtures or components used individually, as WG, WP, EC or other formulations. The application rate for the spray application was 100-600 l of water/ha. After the treatment, the plants were returned to the greenhouses and, when required, treated with fertilizer and watered. • 2. Post-emergence action against weeds: seeds of various broad-leaved weed and weed grass biotypes (origins) were sown in a 8-13 cm diameter pot filled with natural soil of a standard field soil (loamy silt; non-sterile) and covered with a covering soil layer of about 1 cm. The pots were then cultivated in a greenhouse (12-16 h of light, temperature day 20-22° C., night 15-18° C.) until the time of application. The pots were treated at various BBCH stages between 11-25 of the seeds/plants, i.e. generally between two to three weeks after the start of the cultivation, on a laboratory track sprayer with spray liquors comprising the compositions according to the invention, mixtures or components used individually, as WG, WP, EC or other formulations. The application rate for the spray application was 100-600 l of water/ha. After the treatment, the plants were returned to the greenhouses and, when required, treated with fertilizer and watered. • 3. Selective pre-emergence action: seeds of various crop species (origins) were sown in a 8-13 cm diameter pot filled with natural soil of a standard field soil (loamy silt; non-sterile) and covered with a covering soil layer of about 1 cm. The pots were then cultivated in a greenhouse (12-16 h of light, temperature day 20-22° C., night 15-18° C.) until the time of application. The pots were treated at the BBCH stage 00-10 of the seeds/plants on a laboratory track sprayer with spray liquors comprising the compositions according to the invention, mixtures or components used individually, as WG, WP, EC or other formulations. The application rate for the spray application was 100-600 l of water/ha. […]
# MATCH [2] = assay: as above; assay type: in vivo, Matricaria chamomilla; conditions: g of AS/ha: (A) 120, (B) 1200, (C) 90, mixture 120 + 1200 + 90
# Procedure: as §1, §2
# (notes: the term “seeds” also includes vegetative propagation forms such as, for example, rhizome pieces; abbreviations used: h light=hours of illumination, g of AS/ha=gram of active substance per hectare, l/ha=liter per hectare, S=sensitive, R=resistant) • 1. Pre-emergence action against weeds: seeds of various broad-leaved weed and weed grass biotypes (origins) were sown in a 8-13 cm diameter pot filled with natural soil of a standard field soil (loamy silt; non-sterile) and covered with a covering soil layer of about 1 cm. The pots were then cultivated in a greenhouse (12-16 h of light, temperature day 20-22° C., night 15-18° C.) until the time of application. The pots were treated at the BBCH stage 00-10 of the seeds/plants on a laboratory track sprayer with spray liquors comprising the compositions according to the invention, mixtures or components used individually, as WG, WP, EC or other formulations. The application rate for the spray application was 100-600 l of water/ha. After the treatment, the plants were returned to the greenhouses and, when required, treated with fertilizer and watered. • 2. Post-emergence action against weeds: seeds of various broad-leaved weed and weed grass biotypes (origins) were sown in a 8-13 cm diameter pot filled with natural soil of a standard field soil (loamy silt; non-sterile) and covered with a covering soil layer of about 1 cm. The pots were then cultivated in a greenhouse (12-16 h of light, temperature day 20-22° C., night 15-18° C.) until the time of application. The pots were treated at various BBCH stages between 11-25 of the seeds/plants, i.e. generally between two to three weeks after the start of the cultivation, on a laboratory track sprayer with spray liquors comprising the compositions according to the invention, mixtures or components used individually, as WG, WP, EC or other formulations. The application rate for the spray application was 100-600 l of water/ha. After the treatment, the plants were returned to the greenhouses and, when required, treated with fertilizer and watered. • 3. […]
# ALOMY = assay: Greenhouse trial, PE application on sensitive and resistant biotypes (test method 8); assay type: in vivo, Alopecurus myosuroides; conditions: g of AS/ha: (A) 90, (B) 1200, (C) 90, mixture 90 + 1200 + 90, iodosulfuron 10
# Procedure: as §1, §2, §4
# APESV = assay: Greenhouse trial, PE application at different sowing depths (test method 9); assay type: in vivo, Apera Spica-venti; conditions: sowing depth 5 mm, g of AS/ha: (A) 120, (B) 1200, (C) 90, mixture 90 + 1200 + 90
# Procedure: as §1, §2, §3
smiles,measurement,setting,value
"CC(C)N(C(=O)COc1nnc(C(F)(F)F)s1)c1ccc(F)cc1 [(A) flufenacet, N-(4-fluorophenyl)-N-(1-methylethyl)-2-[[5-(trifluoromethyl)-1,3,4-thiadiazol-2-yl]oxy]acetamide]","activity LOLPE (visual, scale 0-100%)",LOLPE,65%
same,"activity MATCH (visual, scale 0-100%)",MATCH [1],97%
same,"activity STEME IU soil (visual, scale 0-100%)",STEME; IU soil,89%
same,"Difference of the soil types, STEME",STEME; IU/EC73 soil versus IU soil,−89%
same,"Difference of the soil types, MATCH",MATCH [2]; IU/EC73 soil versus IU soil,−28%
same,"activity MATCH IU/EC73 soil (visual, scale 0-100%)",MATCH [2]; IU/EC73 soil,0%
same,"activity ALOMY resistant (visual, scale 0-100%)",ALOMY; resistant biotype,68%
same,"activity ALOMY sensitive (visual, scale 0-100%)",ALOMY; sensitive biotype,80%
same,"activity APESV 5 mm (visual, scale 0-100%)",APESV,67%
